Assay results: patent US6403805B1 (Janssen Pharmaceutica N.V., priority 1995, dated 2002)
Counter-ions that a name gives are not always drawn.

Assays:
[1] = molecular target: T1, recombinant human MNL phosphodiesterase type IV B (Homo sapiens, UniProt Q07343); experiment: Inhibition of recombinant human mononuclear lymphocyte (MNL) phosphodiesterase type IV B produced in insect cells with a baculovirus vector; format: biochemical; conditions: recombinant human MNL PDE IV B; 0.8 μM 3H-cAMP, pH 8, 37° C.; calculated graphically
T1 construct: made in house; host or cells: insect cells infected with recombinant baculovirus
T1 sequence (Q07343 whole entry): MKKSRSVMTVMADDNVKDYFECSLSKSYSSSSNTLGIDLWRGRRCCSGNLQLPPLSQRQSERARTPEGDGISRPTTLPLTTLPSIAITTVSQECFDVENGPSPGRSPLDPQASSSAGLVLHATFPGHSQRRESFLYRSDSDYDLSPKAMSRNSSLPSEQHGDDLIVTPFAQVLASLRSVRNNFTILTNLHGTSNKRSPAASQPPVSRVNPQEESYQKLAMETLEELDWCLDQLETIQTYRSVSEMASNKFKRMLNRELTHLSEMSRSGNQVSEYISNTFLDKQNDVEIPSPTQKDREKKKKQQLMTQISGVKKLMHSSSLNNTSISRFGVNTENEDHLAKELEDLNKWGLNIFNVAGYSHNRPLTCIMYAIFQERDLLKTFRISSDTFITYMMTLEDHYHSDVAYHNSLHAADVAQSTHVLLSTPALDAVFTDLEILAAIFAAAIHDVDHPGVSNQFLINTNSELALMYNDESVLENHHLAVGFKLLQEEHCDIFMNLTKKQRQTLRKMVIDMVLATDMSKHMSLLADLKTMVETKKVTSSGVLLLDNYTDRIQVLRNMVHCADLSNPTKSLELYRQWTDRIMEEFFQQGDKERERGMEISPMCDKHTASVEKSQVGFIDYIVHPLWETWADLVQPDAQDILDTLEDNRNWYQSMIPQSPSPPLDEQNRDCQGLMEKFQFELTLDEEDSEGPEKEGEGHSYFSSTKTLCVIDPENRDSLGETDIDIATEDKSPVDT
Method: Inhibition of recombinant human mononuclear lymphoctye (MNL) phosphodiesterase type IV B produced in insect cells with a baculovirus vector
The alleviating and/or curing effect of the instant compounds on allergic and atopic diseases was assessed by an in vitro assay system to detect an inhibiting effect on the recombinant human MNL phosphodiesterase type IV B.
Seventy-two hours after infection with recombinant baculovirus, the insect cells were harvested and pelleted at 500 g for 5 minutes. The cells were lysed in 10 ml lysis-buffer consisting of 20 mM Tris, 10 mM EGTA, 2 mM Na2EDTA, 1% Triton-X-100, 1 mM Na3VO4, 10 mM NaF, 2 μg/ml of leupeptine, pepstatine and aprotinine, 0.3 μg/ml benzamidine and 100 μg/ml TPCK pH 7.5. After 5 minutes on ice, solubilized cells were centrifuged at 4000 rpm for 15 minutes at 4° C. The resulting supernatant was filtered through a 0.45 μm filter (Millipore) and brought to TBS buffer (50 mM Tris, 150 mM NaCl pH 7.4).
After washing the column with equilibration buffer, PDE IV was eluted in 1.5 ml fractions containing 37.5 μl 1M Tris pH 8. The fractions were dialyzed overnight against 20 mM Tris, 2 mM Na2EDTA and 400 mM NaCl pH 7.5 and tested for PDE IV activity. Identification was done on SDS PAGE and Western Blot (anti-FLAG-M2). Active fractions were pooled, brought to 10% glycerol and stored at −70° C.
The incubation mixture (pH 8) (200 μl) contained 20 mM Tris, 10 mM magnesium sulphate, 0.8 μM ^3H-cAMP (310 mCi/mmole) and the phosphodiesterase type IV, the amount depending on the enzymatic activity.
When the effect of different compounds on phosphodiesterase activity was tested, the medium without cAMP was incubated with the compound(s) or its carrier (DMSO-1% final concentration) for 5 min. The enzymatic reaction was started by addition of ^3H-cAMP and stopped 10 min later after transferring the microtiter-plate in a waterbath at 100° C. for 5 min. After cooling to room temperature, alkaline phosphatase (0.25 μg/ml) was added and the mixture was incubated at 37° C. for 20 min. 100 μl of the mixture was subsequently applied to a GF-B filter-microtiter-plate (Millipore) filled with 300 μl DEAE-Sephadex-A25 suspension. The plate was washed 3 times with 75 μl 20 mM Tris pH 7.5 and the filtrates were collected for counting in the Packard Top Count scintillation counter.
The inhibiting effect of the present compounds on recombinant human MNL phosphodiesterase PDE IV B was measured at different concentrations of the instant compounds. The IC50 values (expressed in M) were calculated graphically from the thus obtained inhibition values.

[2] = test system: dextran-induced oedema formation in mouse ear; experiment: Dextran-induced oedema formation in mouse ear; format: in vivo, Male Swiss mice; conditions: Mus musculus, 1 h; oral dose of 5 mg/kg in PEG-200, one hour before i.v. dextran T500/pontamine sky-blue; vs background blueing value; read-out: % inhibition of the extravasation of the dye
Method: Dextran-induced oedema formation in mouse ear Systemic injection of dextran T500 in normal, non-sensitized mice elicits increased vascular permeability, leading to extravasation and oedema of the extremities. When dextran is injected together with a blue dye, blueing of the ears is the most prominent feature of oedematous response. Male Swiss mice weighting 24-26 g were orally pretreated with the test compound dissolved in PEG-200 at different concentrations or solvent. One hour later, the mice were given an intravenous injection with an isotonic saline solution containing 12 mg/ml dextran T500 and 2.6 mg/ml pontamine sky-blue dye, in a volume of 0.1 ml per 10 g body weight. One hour and forty-five minutes later, the animals are sacrificed by ether and their ears removed. Extraction and quantification of the extravasated dye is done as described by Van Wauwe and Goossens (Drug Dev. Res. 1986, 8, 213-218). The extravasation of the dye is characterized by the blueing value which is defined as the concentration of the extracted dye in both ears. The background blueing value was determined once as the mean blueing value obtained by injecting a group of mice with a saline solution containing only dextran T500 and the blue dye. Table 6 lists the percentage inhibition of the extravasation of the dye when compared with the background extravasation of the dye when the test compound was administered at a dose of 5 mg/kg. The test compounds indicated by an asterisk (*) were tested at a dose of 2.5 mg/kg

SMILES | melting point [°C] | IC50 [1] [nM] | inhibition in vivo at 5 mg/kg [2] [%]
COc1ccc(C2(Cn3ccn(Cc4ccccc4)c3=O)CC2)cc1OC [Compound 21, 1-[[1-(3,4-dimethoxyphenyl)cyclopropyl]methyl]-1,3-dihydro-3-(phenylmethyl)-2H-imidazol-2-one] | 110.5 |  | 
CCOC(Cn1cc[nH]c1=O)c1ccc(OC)c(OC)c1 (racemic) [Compound 15, (±)-1-[2-(3,4-dimethoxyphenyl)-2-ethoxyethyl]-1,3-dihydro-2H-imidazol-2-one] | 133.6 |  | 
COc1ccc(C(C)(O)Cn2cc[nH]c2=O)cc1OC1CCCC1 (racemic) [Compound 12, (±)-1-[2-[3-(cyclopentyloxy)-4-methoxyphenyl]-2-hydroxypropyl]-1,3-dihydro-2H-imidazol-2-one] | 136.2 | 290 | 87.5

Continued, in another order:

melting point [°C] | IC50 [1] [nM] | SMILES | inhibition in vivo at 5 mg/kg [2] [%]
221.7 |  | COc1ccc(C(N)CN2CCN(Cc3ccccc3)C2=O)cc1OC (racemic) (as salt: hydrochloric acid salt) [Compound 11, (±)-1-[2-amino-2-(3,4-dimethoxyphenyl)ethyl]-3-(phenylmethyl)-2-imidazolidinone] | 
156.4 |  | COc1ccc(C(CN2CCN(Cc3ccccc3)C2=O)NC(C)=O)cc1OC (racemic) [Compound 14, (±)-N-[1-(3,4-dimethoxyphenyl)-2-[2-oxo-3-(phenylmethyl)-1-imidazolidinyl]ethyl]acetamide] | 32.3
